Key:
p210^bcr-abl kinase = assay: Immunoprecipitation kinase assay of p210bcr-abl (autophosphorylation), ODN added to kinase reaction; type: biochemical, human; conditions: ODN at 1 μM added to the immunoprecipitated enzyme
Experimental: The p210^bcr-abl kinase, src kinase and cdc-2 kinase were immunoprecipitated from K562 cells. The p145^abl kinase was immunoprecipitated from PC3M cells, PDGF receptor kinase from 3T3 cells, and EGF receptor kinase from A431 cells. MAP kinase was utilized as a pure protein and lck kinase was immunoprecipitated from peripheral blood lymphocytes of a normal volunteer.
(§1) Cells were washed in phosphate buffered saline (PBS) and 0.5-5×10^6 cells were solubilized in 1 ml of the specified cell lysis buffers. Unless otherwise stated, all cell lysis buffers contained the following protease inhibitors: 20 μg/ml leupeptin, 1 μg/ml aprotinin, and 1 mM phenylmethylsulfonylfluroide. For p210^bcr-abl and […] immunoprecipitation, cells were lysed with ABL lysis buffer (25 mM imidazole, pH 7.2, 0.5% NP40, 50 mM NaCl, 1 mM Na3 VO4) and lysates were clarified at 14,000 g. 4° C. for 30 minutes. Cell lysis for all other proteins was performed according to the references describing the various immunoprecipitation kinase assays.
(§2) Immunoprecipitation kinase assays of p210^bcr-abl p145^abl were performed as described, with modifications (15). Briefly, for p210^bcr-abl, 1 μg of anti-bcr antibody (clone 7C6, Oncogene Science, Uniondale, N.Y.) was added to lysates prepared from 0.5-1×10^6 K562 cells. For p145^abl, 1 μg of anti-c-abl antibody (clone 24-21), which binds to the C-terminal domain of p145^abl, was added to lysates prepared from 5×10^6 PC3M cells. After incubating 1 hour at 4° C., complexes were precipitated by incubating with protein A-Sepharose coated with rabbit anti-mouse immunoglobulin (Cappel Research Products, Durham, N.C.) for 30 minutes. The complexes were then washed as follows: ABL lysis buffer×2, PBS×1, and ABL assay buffer×1 (24 mM imidazole, pH 7.2, 1 mg/ml bovine serum albumin, and 10 mM MnCl). For p145^abl assays ABL assay buffer contained 20 mM MnCl. To access the activity of p210^bcr-abl on substrate phosphorylation, acid inactivated enolase (Sigma Chemical Co., St. Louis, Mo.) was added as described (15).
(§3) ODNs were added to kinase reaction buffers not more than 5 minutes prior to the addition of ATP. Reactions were initiated by the addition of [γ^-32 P] ATP (3000 Ci/mmole; Amersham Corp., Arlington Heights, Ill.) and quenched by the addition of 5× gel loading buffer and heating to 95° C. Kinase reactions were run for 1-10 minutes at room temperature, except for EGFR, p145^abl, and MAP kinase, which were run at 30° C. The products were then electrophoresed on SDS-polyacrylamide gels: 7% for p210^bcr-abl, EGFR, and PDGFR, 8% for p145^abl, 10% for src, lck, and cdc-2 kinase, and 12% for MAP kinase. Gels were dried and reaction products were visualized by direct autoradiography at -70° C. with Kodak X-OMAT AR film. To determine the inhibitory concentration 50, i.e., the concentration required to inhibit enzyme activity by 50% (IC50) and Ki values, gel slices containing the band of interest were excised and analyzed by Cerenkov counting.

[1] = test system: p210^bcr-abl kinase in K562 cells; assay: Immunoprecipitation kinase assay of p210bcr-abl from ODN treated K562 cells; type: cell-based, human; conditions: K562 cells treated with T-21 overnight, washed, calculated from FIG. 9A, read-out: IC50 of apparent reduction of p210^bcr-abl kinase activity
Experimental: as §2, §3
The effects of ODN1 on a cellular system were assessed. […] After 3 days, cells were washed and p210^bcr-abl kinase activity was measured. […] Neither cellular p210^bcr-abl protein content nor cell growth was affected by ODN treatment (data not shown).

p210^bcr-abl = assay: Inhibition of p210bcr-abl immunoprecipitation by BCR directed antibody clone 7C6; type: binding, human; conditions: 10 μM ODN added to K562 cell lysate, antibody clone 7C6, Western for phosphotyrosine
Experimental: FIG. 9C. Inhibition of p210^bcr-abl immunoprecipitation by T-21. […] T-21 was added to the lysate from 1×10^6 K562 cells (lane 2) and p210^bcr-abl immunoprecipitated with the BCR directed antibody, clone 7C6; no ODN was added to the lysate immunoprecipitated in lane 1. After extensive washing, the immunoprecipitates were separated on a 7% SDS polyacrylamide gel, transferred to nitrocellulose, and probed with an anti-phosphotyrosine antibody. Data are representative of at least two separate experiments.
In experiments designed to test the specificity of BCR-AS, an ODN composed solely of thymidylic acid residues (T-21) i.e., 5' […] 3' (SEQ ID NO.: 12) was capable of interfering with p210^bcr-abl immunoprecipitation. […] From the data in FIG. 9A, one can calculate an IC50 of less than 1 μM. […] This apparent discrepancy appears to be due to the ability of T-21 to inhibit precipitation of p210^bcr-abl by the BCR-directed antibody, clone 7C6. […] Inhibition of p210^bcr-abl immunoprecipitation was not seen with the other ODNs used in this study (data now shown).

[2] = molecular target: p145 ABL tyrosine kinase (c-Abl) (UniProt P00519 P00519:1-1130); assay: inhibition; 20 mM Mn, 30 C; conditions: tags: immunoprecipitated from PC3M cells with anti-c-abl clone 24-21
Experimental: as §1, with “0.5–5×10^6” for “0.5-5×10^6”, “µg/ml” for “μg/ml”, “Na_3VO_4)” for “Na3 VO4)”
Immunoprecipitation kinase assays of p210^bcr-abl p145^abl were performed as described, with modifications (15). Briefly, for p210^bcr-abl, 1 µg of anti-bcr antibody (clone 7C6, Oncogene Science, Uniondale, N.Y.) was added to lysates prepared from 0.5–1×10^6 K562 cells. For p145^abl, 1 µg of anti-c-abl antibody (clone 24-21), which binds to the C-terminal domain of p145^abl, was added to lysates prepared from 5×10^6 PC3M cells. After incubating 1 hour at 4° C., complexes were precipitated by incubating with protein A-Sepharose coated with rabbit anti-mouse immunoglobulin (Cappel Research Products, Durham, N.C.) for 30 minutes. […]

Chain of p145 ABL tyrosine kinase (c-Abl) (P00519 whole entry, one chain of several): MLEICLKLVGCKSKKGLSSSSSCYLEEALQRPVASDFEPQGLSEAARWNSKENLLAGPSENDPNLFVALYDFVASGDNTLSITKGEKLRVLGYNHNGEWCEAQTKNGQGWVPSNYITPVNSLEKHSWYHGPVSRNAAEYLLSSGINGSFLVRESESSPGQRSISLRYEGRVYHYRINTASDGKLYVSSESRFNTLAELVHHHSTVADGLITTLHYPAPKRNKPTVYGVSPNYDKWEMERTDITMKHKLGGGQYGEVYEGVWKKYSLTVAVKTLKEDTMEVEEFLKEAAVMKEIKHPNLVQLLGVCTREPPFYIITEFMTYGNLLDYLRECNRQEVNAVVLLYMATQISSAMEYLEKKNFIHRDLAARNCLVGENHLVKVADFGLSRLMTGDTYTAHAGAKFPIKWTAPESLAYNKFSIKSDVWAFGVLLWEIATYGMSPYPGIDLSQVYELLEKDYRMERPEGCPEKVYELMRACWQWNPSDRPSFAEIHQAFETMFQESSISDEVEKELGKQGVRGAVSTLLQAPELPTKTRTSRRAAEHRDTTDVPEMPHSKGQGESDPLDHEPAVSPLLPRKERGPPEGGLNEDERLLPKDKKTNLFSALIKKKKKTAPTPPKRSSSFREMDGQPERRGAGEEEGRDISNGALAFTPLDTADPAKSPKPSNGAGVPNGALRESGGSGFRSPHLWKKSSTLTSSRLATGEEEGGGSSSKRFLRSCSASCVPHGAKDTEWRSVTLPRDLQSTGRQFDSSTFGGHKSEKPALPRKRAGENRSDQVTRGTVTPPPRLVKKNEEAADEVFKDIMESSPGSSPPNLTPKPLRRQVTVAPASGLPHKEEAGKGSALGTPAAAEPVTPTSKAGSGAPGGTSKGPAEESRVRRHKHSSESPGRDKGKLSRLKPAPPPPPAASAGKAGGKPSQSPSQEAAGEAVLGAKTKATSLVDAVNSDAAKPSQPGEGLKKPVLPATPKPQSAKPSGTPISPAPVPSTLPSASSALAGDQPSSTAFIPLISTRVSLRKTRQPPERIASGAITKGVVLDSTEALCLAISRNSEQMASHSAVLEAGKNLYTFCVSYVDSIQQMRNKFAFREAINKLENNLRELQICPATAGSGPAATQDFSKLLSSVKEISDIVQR

5' TTTTTTTTTTTTTTTTTTTTT 3' (chemistry not given here) [T-21, a 21mer composed solely of thymidylic acid residues]
inhibition of p210^bcr-abl kinase activity in vitro (in words) (p210^bcr-abl kinase): only moderate inhibition
IC50 [1]: < 1000 nM
inhibition of p210^bcr-abl immunoprecipitation (p210^bcr-abl): nearly total inhibition

GTCCACCATGGCGCGGCCGGC (ssDNA, PS, two linkages at each of 5' and 3' ends, rest phosphodiester) [ODN1 (BCR-AS), phosphorothioate capped]
IC50 [2]: 620 nM

From US5998596A, “Inhibition of protein kinase activity by aptameric action of oligonucleotides” (The United States of America as represented by the …)
